In patent US9248203B2, “Fluorescent imaging with substituted cyanine dyes” (LI-COR, INC., priority 2010, dated 2016):
Blank lines part the entries; values can stand above or below the molecule they belong to.

Legend:
[1] = Absorption wavelength of the cyanine dyes in methanol (halo substitution effect); format: physicochemical; conditions: Table 2
Excerpt: Design Principle: We analyzed the properties of a dye scaffold and related compounds and the corresponding substitution effects on the excitation and emission wavelengths. The small size of fluorine is unlikely to produce steric effects, therefore, we explored the electronic effects of fluorine and related substitutions. The Hammett equation (σ-value) is an important tool to understand the electronic effects of the substituents, therefore, we explored the correlation of the wavelength (λMeOH) and the σ-value (vide infra): […]

[2] = test system: U87GM cells; assay: Immunocytochemical binding, blocking and dye control assay, U87GM; format: cell-based; conditions: dye control up to 5 μM, FIG. 7C
Method: RGD (Arg-Gly-Asp), the recognition motif used to bind the integrin receptors, was labeled with compound 17. The characteristics of RGD/17 conjugate and the analogous dye carboxylate 16 were evaluated in a cell-based assay.
Compound 17 was conjugated to the peptide RGD by the general procedure set forth in Example 32.
The cell lines U87GM and PC3MLN4 were assayed. Assays included binding, blocking, and carboxylate control. Serial dilutions of compound 16 were prepared at concentrations of 200-6.25 nM. Blocking was accomplished with unlabeled RGD at concentrations of 10-0.31 μM with the addition of 200 nM compound 17-RGD conjugates in all test wells. The compound 16 was evaluated as a dye control for non-specific binding at relatively high levels from 5-0.16 μM with U87GM cells and 1-0.002 μM with PC3 cells.
In the second round of testing with U87GM cells, concentrations of unlabeled RGD and compound 17/RGD were increased (FIGS. 8A and 8B). Binding assay concentrations utilized 0.8-400 nM while the blocking assay used 0.06-30 μM unlabeled RGD with an addition of 200 nM 17/RGD.

[3] = In vivo clearance, Pearl Impulse imaging; set-up: species or system nude mice; conditions: for Total: 800 channel; for clearance in vivo (clearance series): FIG. 9, 1 nmole injected, imaged over 24 h
Method: Two nude mice were injected with 1 nmole of either compound 16 or IRDye 800CW carboxylate. They were then imaged longitudinally over the next 24 h with the Pearl Impulse imaging system. The results are presented in FIG. 9: in vivo clearance in nudes (FIG. 9A), whole body dorsal views (FIG. 9B), and the rate of clearance (FIG. 9C). The clearance data is presented below in Table 4.

[4] = Summary of photophysical properties (absorption, emission, relative fluorescence, quantum yield); format: physicochemical; conditions: head is a formula, relative to IRDye 800 CW
[5] = value used for the standard IRDye 800 CW; cited from earlier work

λMeOH [1]: 770 nm
Molecule: CC1(C)C(/C=C/C2=C(c3cccc(F)c3F)C(=C/C=C3/N(CCCCS(=O)(=O)[O-])c4ccc(S(=O)(=O)[O-])cc4C3(C)C)/CC(C(=O)O)C2)=[N+](CCCCS(=O)(=O)[O-])c2ccc(S(=O)(=O)[O-])cc21.[Na+].[Na+].[Na+] (stereo not drawn) [Compound 63a]

Molecule: CCCCOc1c(F)c(F)c(C2=C(/C=C/C3=[N+](CCCCS(=O)(=O)[O-])c4ccc(S(=O)(=O)[O-])cc4C3(C)C)CCC/C2=C\C=C2\N(CCCCS(=O)(=O)[O-])c3ccc(S(=O)(=O)[O-])cc3C2(C)C)c(F)c1F.[Na+].[Na+].[Na+] [Compound 24]
λMeOH [1]: 790 nm

Total ([3]; 1 min): 109682.80
Total ([3]; 17 min): 282046.59
Total ([3]; 45 min): 286573.94
Total ([3]; 71 min): 266647.59
Total ([3]; 190 min): 139736.97
Total ([3]; 276 min): 76493.30
Total ([3]; 1435 min): 1652.69
clearance in vivo (clearance series) [3]: good clearance in vivo
Molecule: CC1(C)C(/C=C/C2=C(c3c(F)cc(F)cc3F)C(=C/C=C3/N(CCCS(=O)(=O)[O-])c4ccc(S(=O)(=O)[O-])cc4C3(C)C)/CC(C(=O)O)C2)=[N+](CCCS(=O)(=O)[O-])c2ccc(S(=O)(=O)[O-])cc21.[Na+].[Na+].[Na+] (stereo not drawn) [Compound 16]
concentration above which relatively high non-specific binding of the dye alone was noted [2]: above 2 μM

Molecule: CC1(C)C(/C=C/C2=C(c3cccc(F)c3F)C(=C/C=C3/N(CCCCS(=O)(=O)[O-])c4ccc(S(=O)(=O)[O-])cc4C3(C)C)/CCC2)=[N+](CCCCS(=O)(=O)[O-])c2ccc(S(=O)(=O)[O-])cc21.[Na+].[Na+].[Na+] [Compound 62k]
[formula] Odyssey [4]: 104%
[formula] Fluorimeter [4]: 100%

Total ([3]; 3 min): 114295.49
Total ([3]; 19 min): 306555.97
Total ([3]; 47 min): 291381.69
Total ([3]; 74 min): 272408.13
Total ([3]; 192 min): 154950.09
Total ([3]; 278 min): 102698.54
Total ([3]; 1439 min): 2336.87
clearance in vivo (clearance series) [3]: good clearance in vivo
Molecule: IRDye 800CW carboxylate [reference compound]

[formula] Odyssey [4]: 100%
[formula] Fluorimeter [4]: 100%
Molecule: CC1(C)C(=CC=C2CCCC(C=CC3=[N+](CCCCCC(=O)[O-])c4ccc(S(=O)(=O)[O-])cc4C3(C)C)=C2Oc2ccc(S(=O)(=O)[O-])cc2)N(CCCCS(=O)(=O)[O-])c2ccc(S(=O)(=O)[O-])cc21.[Na+].[Na+].[Na+].[Na+] [IRDye 800CW, reference compound]
Quantum Yield of the standard [5]: 0.07
